Results on four compounds are retold here after paper PMC9917184, “Synthesis and Biological Evaluation of Potential Oncoimmunomodulator Agents” (International Journal of Molecular Sciences, 2023).

Read-outs that look alike come from different tables or passages of the source.

The target in one assay is PD-L1 (Homo sapiens, UniProt Q9NZQ7). Nature of the assay: Total PD-L1 relative quantification by flow cytometry in cancer cell lines. Set-up: Alexa Fluor® 647 Rabbit monoclonal Anti-PD-L1 (ab215251); endogenous in cells; host or cells: HT-29. The note with it: 24 h, total PD-L1 relative to negative control (DMSO). In kind it is cell-based. As for the experimental part:
(§1) The effect of these triazole derivates on c-Myc and PD-L1 was measured in three different cancer cell lines (HT-29, MCF-7, A-549) by flow cytometry. Thus, cells were incubated for 24 h with the corresponding compound at a concentration of 100 μM. Dimethyl sulfoxide (DMSO)-treated cells were used as the negative control, and a PD-L1 inhibitor, BMS-8 [29, 31], was used as a reference control. After permeabilization and fixation, cells were treated with anti-PD-L1 conjugated to AlexaFluor®647 and anti-c-Myc conjugated to fluorescein to determine the amount of both targets related to the negative control. Table 1 show the results in terms of the percentage of the detected target in relation to the negative control. This assay was carried out on cancer cell lines HT-29, MCF-7, and A-549.
(§2) To study the effect of the compounds on every biological target in cancer cell lines, the compounds were used at a 100 µM dose.
(§3) For the assay, 10^5 cells per well were incubated for 24 h with the corresponding dose of the tested compound in a total volume of 500 μL of their growth media.
(§4) To detect total PD-L1 and c-Myc, after the cell treatments, they were collected and fixed with 4% in PBS paraformaldehyde. After fixation, a treatment with 0,5% in PBS Triton™ X-100 was performed, and finally, cells were stained with FITC Mouse monoclonal Anti-c-Myc (ab223913) and Alexa Fluor® 647 Rabbit monoclonal Anti-PD-L1 (ab215251).

The test system of another assay is A-549. Nature of the assay: A-549 cell viability in co-culture with Jurkat T cells (flow cytometry count). The note with it: 24 h; for viability at 100 µM: Homo sapiens, A549, A-549/Jurkat T co-culture, IFN-γ stimulated, read-out: percentage of living A-549 cells relative to non-treated co-cultures; for inhibition rate of A-549 cell viability: co-cultured with Jurkat T cells, 100 μM. Type of assay: cell-based, human. As for the experimental part:
(§5) The effect of the synthesized compounds on tumor cell proliferation in the presence of PD-1-expressing Jurkat T cells was also studied. This assay was carried out, as in the previous experiments, in the HT29, MCF7, and A549 cell lines (see Table 4). Interferon γ-stimulated cancer cells were treated for 24 h with the compounds at 100 μM in presence of Jurkat T cells. Then, cells were counted using flow cytometry. The percentage of living cells relative to non-treated co-cultures (control) was established for both cancer and immune cells in every co-culture.
(§6) To study the effect of the compounds on the cell viability in co-culture with Jurkat T cells or THP-1 cells, 10^5 or 2 × 10^5 of the corresponding cancer cells line per well were seeded and incubated for 24 h, then the medium was changed by one cell culture medium supplemented with IFN-γ (10 ng/mL; human, Invitrogen®) and containing 5 × 10^5 or 10^5 Jurkat T cells or THP-1, respectively, per well and 100 µM of the corresponding compound or DMSO for the […] control. After 24 h/48 h of incubation, supernatants were collected to determine Jurkat T or THP-1 living cells, and on the other hand, corresponding cancer cells were collected with trypsin. Both types of suspension cells were fixed with 4% in PBS paraformaldehyde and counted by flow cytometry.

For the next assay, the target named is T1, membrane PD-L1 (Homo sapiens, UniProt Q9NZQ7).
T1 construct: Alexa Fluor® 647 Rabbit monoclonal Anti-PD-L1 (ab215251); endogenous in cells; host or cells: HT-29, MCF-7, A-549 (A17: MCF-7 only; A14: IFN-gamma-stimulated cancer cells co-cultured with Jurkat T cells)
Kind of assay: Membrane PD-L1 relative quantification by flow cytometry in cancer cells co-cultured with Jurkat T cells. Type of assay: cell-based. The note with it: Jurkat, 24 h; for remaining activity at 100 µM: relative to non-treated co-cultures, read-out: % PDL1 (membrane); for inhibition at 100 µM: HT-29 co-cultured with Jurkat T cells, read-out: membrane PD-L1 inhibition rate. As for the experimental part: (§7) We determined by flow cytometry the effect of these compounds on the expression of membrane PD-L1 in cancer cells when they were co-cultured with immune cells. Thus, interferon γ-stimulated cancer cells were treated for 24 h with the compounds at 100 μM in presence of Jurkat T cells. Then, cells were fixed and treated with anti-PD-L1 conjugated to AlexaFluor®647. We took advantage of the versatility of flow cytometry to simultaneously measure the expression of membrane VEGFR-2 by using anti-VEGFR-2 conjugated to fluorescein.
(§8) To study the effect of the compounds on every biological target in co-cultured cancer cell lines, the compounds were incubated for 24h as described before.
(§9) To detect membrane PD-L1 and VEGFR-2, after the cell treatments, they were collected, fixed with 4% in PBS paraformaldehyde, and stained with FITC Mouse monoclonal Anti-Human VEGFR-2 (ab184903) and Alexa Fluor® 647 Rabbit monoclonal Anti-PD-L1 (ab215251).

The test system of a further assay is c-Myc. Kind of assay: Total c-Myc relative quantification by flow cytometry in cancer cell lines. Type of assay: cell-based, human. The note with it: 24 h. As for the experimental part:
as §1, §2, §3, §4

For another assay, the system named is MCF-7. Kind of assay: MCF-7 cell viability in co-culture with Jurkat T cells (flow cytometry count). In kind it is cell-based, human. The note with it: 24 h; for viability at 100 µM: Homo sapiens, MCF7, MCF-7/Jurkat T co-culture, IFN-γ stimulated, read-out: percentage of living MCF-7 cells relative to non-treated co-cultures. As for the experimental part:
as §5, §6

The subject of a further assay is membrane VEGFR-2. Kind of assay: Membrane VEGFR-2 relative quantification by flow cytometry in cancer cells co-cultured with Jurkat T cells. In kind it is cell-based, human. The note with it: 100 μM, 24 h, relative to non-treated co-cultures. As for the experimental part:
as §7, §8, §9

The test system of the next assay is Jurkat T cells. Nature of the assay: Jurkat T cell viability in co-culture with cancer cells (flow cytometry count). Type of assay: cell-based. The note with it: Homo sapiens, 24 h, read-out: percentage of living Jurkat cells relative to non-treated co-cultures. As for the experimental part:
as §5, §6

A further assay has as its system HT-29. Kind of assay: HT-29 cell viability in co-culture with Jurkat T cells (flow cytometry count). The note with it: 24 h; for viability at 100 µM: Homo sapiens, HT-29/Jurkat T co-culture, IFN-γ stimulated, read-out: percentage of living HT-29 cells relative to non-treated co-cultures. Type of assay: cell-based, human. As for the experimental part:
as §5, §6

The mark [1] stands for this setting: A549 co-cultured with Jurkat T cells.
Where [2] appears, read: HT29 co-cultured with Jurkat T cells.
Where [3] appears, read: MCF7 co-cultured with Jurkat T cells.
[4] abbreviates: A-549, 100 µM, relative to negative control (DMSO).
Where [5] appears, read: HT-29, 100 µM, detected target relative to negative control (DMSO).
[6] abbreviates: MCF-7, 100 µM, relative to negative control (DMSO).
The mark [7] stands for this setting: co-cultured with Jurkat T cells, 100 μM.

Sequence of PD-L1 (Q9NZQ7 19-290): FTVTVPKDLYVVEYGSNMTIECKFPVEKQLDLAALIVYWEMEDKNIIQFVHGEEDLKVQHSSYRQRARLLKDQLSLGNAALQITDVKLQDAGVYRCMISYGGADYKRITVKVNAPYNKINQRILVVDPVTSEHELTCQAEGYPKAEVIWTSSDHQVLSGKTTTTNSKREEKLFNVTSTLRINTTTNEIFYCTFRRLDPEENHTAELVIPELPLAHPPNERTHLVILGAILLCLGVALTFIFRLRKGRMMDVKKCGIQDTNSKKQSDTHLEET
T1 sequence (Q9NZQ7 19-290): as above

With `OCCc1ccc(CCn2cc(-c3cccc(Br)c3)nn2)cc1` [Compound 6, 2-(4-(2-(4-(3-bromophenyl)-1H-1,2,3-triazol-1-yl)ethyl)phenyl)ethan-1-ol], the remaining activity at 100 µM at PD-L1 (A549, A-549, 100 µM) was 62 ± 4%; on PD-L1 (HT-29, 100 µM), 104 ± 6%; on PD-L1 (MCF7, MCF-7, 100 µM) it was 110 ± 4%; on membrane PD-L1 (setting [1]), 75 ± 1%; at membrane PD-L1 (setting [2]) it was 63 ± 6%; on membrane PD-L1 (setting [3]), 66 ± 11%. For the same compound, the viability at 100 µM in the assay on A-549 was determined as 75 ± 3%; in the assay with MCF-7, 65 ± 8%; in the assay on Jurkat T cells (A-549/Jurkat T co-culture), 119 ± 6%; in the assay with Jurkat T cells (HT-29/Jurkat T co-culture), 116 ± 7%; in the assay on Jurkat T cells (MCF-7/Jurkat T co-culture), 119 ± 1%; with HT-29, 104 ± 4%. Further, the “inhibition rate of A-549 cell viability” value with A-549 is listed as “around 30%”. For the same compound, on membrane PD-L1, the inhibition at 100 µM was 40 to 50%. Moreover, the entries for the “% c-Myc” value in the assay with c-Myc (setting [4]), in the assay with c-Myc (setting [5]) and in the assay on c-Myc (setting [6]) were 84 ± 9%, 149 ± 12% and 81 ± 6%, respectively. The figures for the “%VEGFR2 (membrane)” value in the assay on membrane VEGFR-2 (setting [1]), in the assay with membrane VEGFR-2 (setting [2]) and in the assay on membrane VEGFR-2 (setting [3]) were 87 ± 7%, 98 ± 2% and 98 ± 6%, respectively.

For the compound `COc1ccc(C(OCCc2ccc(CCn3cc(-c4ccccc4OC)nn3)cc2)(c2ccccc2)c2ccc(OC)cc2)cc1` [Compound 13, 1-(4-(2-(bis(4-methoxyphenyl)(phenyl)methoxy)ethyl)phenethyl)-4-(2-methoxyphenyl)-1H-1,2,3-triazole], the remaining activity at 100 µM amounted to 120 ± 5% at PD-L1 (A549, A-549, 100 µM); 102 ± 1% on PD-L1 (HT-29, 100 µM); 87 ± 6% at PD-L1 (MCF7, MCF-7, 100 µM); 83 ± 6% on membrane PD-L1 (setting [1]); 57 ± 12% on membrane PD-L1 (setting [2]); 33 ± 4% on membrane PD-L1 (setting [3]). The viability at 100 µM in the assay with A-549 is 103 ± 4%; in the assay with MCF-7, 43 ± 1%; in the assay with Jurkat T cells (A-549/Jurkat T co-culture), 90 ± 2%; in the assay with Jurkat T cells (HT-29/Jurkat T co-culture) it was 110 ± 9%; in the assay on Jurkat T cells (MCF-7/Jurkat T co-culture), 79 ± 5%; in the assay on HT-29, 153 ± 15%. For the same compound, the inhibition at 100 µM on membrane PD-L1 is 40 to 50%. In the assay with c-Myc (A-549, 100 μM), this compound gave a c-Myc inhibition rate of 50%. Also, the figures for the “% c-Myc” value with c-Myc (setting [4]), in the assay with c-Myc (setting [5]) and in the assay with c-Myc (setting [6]) were 51 ± 2%, 68 ± 3% and 77 ± 5%, respectively. In the assay with MCF-7 (setting [7]), the “inhibition rate of MCF-7 cell viability” value was “around 60%”. The “%VEGFR2 (membrane)” value in the assay with membrane VEGFR-2 (setting [1]) worked out at 80 ± 8%; in the assay with membrane VEGFR-2 (setting [2]), 89 ± 2%; with membrane VEGFR-2 (setting [3]) it was 120 ± 8%.

Regarding `OCCc1ccc(CCn2cc(-c3ccccc3Br)nn2)cc1` [Compound 8, 2-(4-(2-(4-(2-bromophenyl)-1H-1,2,3-triazol-1-yl)ethyl)phenyl)ethan-1-ol], the remaining activity at 100 µM at PD-L1 (A549, A-549, 100 µM) turned out to be 44 ± 8%; on PD-L1 (HT-29, 100 µM), 115 ± 5%; at PD-L1 (MCF7, MCF-7, 100 µM) it was 81 ± 1%; on membrane PD-L1 (setting [1]), 84 ± 8%; on membrane PD-L1 (setting [2]), 58 ± 6%; on membrane PD-L1 (setting [3]) it was 46 ± 9%. The viability at 100 µM with A-549 was determined as 72 ± 9%; in the assay on MCF-7, 49 ± 10%; with Jurkat T cells (A-549/Jurkat T co-culture) it was 88 ± 34%; in the assay on Jurkat T cells (HT-29/Jurkat T co-culture), 95 ± 5%; with Jurkat T cells (MCF-7/Jurkat T co-culture), 164 ± 9%; with HT-29 it was 97 ± 10%. Also, in the assay on A-549, the “inhibition rate of A-549 cell viability” value is “around 30%”. The inhibition at 100 µM on membrane PD-L1 lay within 40 to 50%. For the same compound, the “% c-Myc” value in the assay on c-Myc (setting [4]) is on record as 48 ± 7%; in the assay with c-Myc (setting [5]) it was 88 ± 2%; in the assay with c-Myc (setting [6]), 92 ± 6%. Also, the results for the “%VEGFR2 (membrane)” value with membrane VEGFR-2 (setting [1]), in the assay with membrane VEGFR-2 (setting [2]) and in the assay on membrane VEGFR-2 (setting [3]) were 104 ± 5%, 97 ± 4% and 108 ± 6%, respectively.

Take `COc1cccc(-c2cn(CCc3ccc(CCO)cc3)nn2)c1` [Compound 12, 2-(4-(2-(4-(3-methoxyphenyl)-1H-1,2,3-triazol-1-yl)ethyl)phenyl)ethan-1-ol]: the remaining activity at 100 µM on PD-L1 (A549, A-549, 100 µM) came to 67 ± 8%; at PD-L1 (HT-29, 100 µM), 157 ± 6%; on PD-L1 (MCF7, MCF-7, 100 µM) it was 88 ± 1%; on membrane PD-L1 (setting [1]) it was 77 ± 3%; at membrane PD-L1 (setting [2]) it was 88 ± 5%; at membrane PD-L1 (setting [3]), 41 ± 2%. Besides, the viability at 100 µM in the assay with A-549 was found to be 86 ± 2%; in the assay on MCF-7 it was 78 ± 4%; in the assay on Jurkat T cells (A-549/Jurkat T co-culture), 83 ± 6%; with Jurkat T cells (HT-29/Jurkat T co-culture), 104 ± 5%; with Jurkat T cells (MCF-7/Jurkat T co-culture), 123 ± 11%; with HT-29, 60 ± 3%. The “inhibition rate of A-549 cell viability” value in the assay with A-549 is on record as “around 30%”. Besides, the “% c-Myc” value with c-Myc (setting [4]) is reported as 113 ± 9%; in the assay on c-Myc (setting [5]), 84 ± 2%; in the assay on c-Myc (setting [6]), 81 ± 4%. The results for the “%VEGFR2 (membrane)” value with membrane VEGFR-2 (setting [1]), in the assay with membrane VEGFR-2 (setting [2]) and with membrane VEGFR-2 (setting [3]) were 99 ± 6%, 113 ± 4% and 103 ± 8%, respectively. In the assay with HT-29 (setting [7]), the “inhibition rate of HT-29 cell viability” value is on record as “around 40%”.
